ChEMBL document CHEMBL3875147 (Eur J Med Chem, 2016)
Values after ≈ are worked out from the molar mass of the structure shown.

Legend:
[1] = test system: Plesiomonas shigelloides; test: Antibacterial activity against Plesiomonas shigelloides ATCC 14029 incubated for 18 to 24 hrs by micro-dilution method; type: functional
[2] = test system: Salmonella typhi; test: Antibacterial activity against clinical isolate of Salmonella typhi incubated for 18 to 24 hrs by micro-dilution method; type: functional, Salmonella enterica subsp. enterica serovar Typhi; details: Salmonella enterica
[3] = test system: Salmonella typhimurium; test: Antibacterial activity against clinical isolate of Salmonella typhimurium incubated for 18 to 24 hrs by micro-dilution method; type: functional, Salmonella enterica subsp. enterica serovar Typhimurium; details: Salmonella enterica
[4] = Antibacterial activity against Aeromonas hydrophila ATCC 7966 incubated for 18 to 24 hrs by micro-dilution method; type: functional, Aeromonas hydrophila subsp. hydrophila ATCC 7966
[5] = Hemolytic activity in human RBC at 100 uM measured after 1 hr by UV-vis absorbance method relative to control; type: ADME, cell-based, Erythrocyte; details: red blood cells (RBC), read-out: Activity
[6] = test system: Staphylococcus aureus; test: Antibacterial activity against Staphylococcus aureus ATCC 25923 incubated for 18 to 24 hrs by micro-dilution method; type: functional
[7] = test system: Sphingomonas paucimobilis; test: Antibacterial activity against Sphingomonas paucimobilis MTCC 6362 incubated for 18 to 24 hrs by micro-dilution method; type: functional
[8] = test system: Escherichia coli; test: Antibacterial activity against Escherichia coli ATCC 25922 incubated for 18 to 24 hrs by micro-dilution method; type: functional
[9] = test system: Pseudomonas aeruginosa; test: Antibacterial activity against Pseudomonas aeruginosa ATCC 27853 incubated for 18 to 24 hrs by micro-dilution method; type: functional
[10] = test system: Enterococcus faecalis; test: Antibacterial activity against clinical isolate of Enterococcus faecalis incubated for 18 to 24 hrs by micro-dilution method; type: functional
[11] = test system: Staphylococcus epidermidis; test: Antibacterial activity against Staphylococcus epidermidis ATCC 35984 incubated for 18 to 24 hrs by micro-dilution method; type: functional; details: RP62A
[12] = test system: Pseudomonas aeruginosa; test: Antibacterial activity against clinical isolate of Pseudomonas aeruginosa incubated for 18 to 24 hrs by micro-dilution method; type: functional
[13] = test system: Plesiomonas shigelloides; test: Potency index, ratio of MIC for ciprofloxacin to MIC for test compound for antibacterial activity against Plesiomonas shigelloides ATCC 14029; type: functional
[14] = test system: Escherichia coli; test: Potency index, ratio of MIC for ciprofloxacin to MIC for test compound for antibacterial activity against Escherichia coli ATCC 25922; type: functional
[15] = test system: Staphylococcus aureus; test: Potency index, ratio of MIC for ciprofloxacin to MIC for test compound for antibacterial activity against Staphylococcus aureus ATCC 25923; type: functional
[16] = test system: Staphylococcus epidermidis; test: Potency index, ratio of MIC for ciprofloxacin to MIC for test compound for antibacterial activity against Staphylococcus epidermidis ATCC 35984; type: functional, RP62A
[17] = test system: Enterococcus faecalis; test: Potency index, ratio of MIC for ciprofloxacin to MIC for test compound for antibacterial activity against clinical isolate of Enterococcus faecalis; type: functional

Row | Compound | MIC [1] | MIC [2] | MIC [3] | MIC [4] | hemolysis at 1 h, 100 µM [5] | MIC [6] | MIC [7] | MIC [8] | MIC [9] | MIC [10] | MIC [11] | MIC [12] | Ratio [13] | Ratio [14] | Ratio [15] | Ratio [16] | Ratio [17]
1 | O=C(OCc1cn(-c2ccccc2Cl)nn1)c1cn(C2CC2)c2cc(N3CCN(Cc4cn(-c5ccccc5Cl)nn4)CC3)c(F)cc2c1=O | 2.19 µM (≈ 1.56 µg/mL) | 140 µM (≈ 100 µg/mL) | 17.5 µM (≈ 12.5 µg/mL) | 35 µM (≈ 25 µg/mL) | 5.85% | 8.75 µM (≈ 6.25 µg/mL) | 35 µM (≈ 25 µg/mL) | 2.19 µM (≈ 1.56 µg/mL) | 8.75 µM (≈ 6.25 µg/mL) | 35 µM (≈ 25 µg/mL) | 1.09 µM (≈ 0.779 µg/mL) | 35 µM (≈ 25 µg/mL) | – | – | – | – | –
2 | C#CCOC(=O)c1cn(C2CC2)c2cc(N3CCN(CC#C)CC3)c(F)cc2c1=O | 1.92 µM (≈ 0.782 µg/mL) | 30.7 µM (≈ 12.5 µg/mL) | 7.67 µM (≈ 3.13 µg/mL) | 61.4 µM (≈ 25 µg/mL) | 4.57% | 1.92 µM (≈ 0.782 µg/mL) | 30.7 µM (≈ 12.5 µg/mL) | 1.92 µM (≈ 0.782 µg/mL) | 7.67 µM (≈ 3.13 µg/mL) | 30.7 µM (≈ 12.5 µg/mL) | 1.92 µM (≈ 0.782 µg/mL) | 15.3 µM (≈ 6.25 µg/mL) | 5 - 10 | 5 - 10 | 5 - 10 | 5 - 10 | –
3 | O=C(OCc1cn(-c2ccc([N+](=O)[O-])cc2)nn1)c1cn(C2CC2)c2cc(N3CCN(Cc4cn(-c5ccc([N+](=O)[O-])cc5)nn4)CC3)c(F)cc2c1=O | 4.25 µM (≈ 3.13 µg/mL) | – | 17 µM (≈ 12.5 µg/mL) | 17 µM (≈ 12.5 µg/mL) | 5.61% | 4.25 µM (≈ 3.13 µg/mL) | 17 µM (≈ 12.5 µg/mL) | 4.25 µM (≈ 3.13 µg/mL) | 8.5 µM (≈ 6.25 µg/mL) | 8.5 µM (≈ 6.25 µg/mL) | 1.06 µM (≈ 0.78 µg/mL) | 17 µM (≈ 12.5 µg/mL) | – | – | – | – | –
4 | CCCCCc1ccc(-n2cc(COC(=O)c3cn(C4CC4)c4cc(N5CCN(Cc6cn(-c7ccc(CCCCC)cc7)nn6)CC5)c(F)cc4c3=O)nn2)cc1 | 63.6 µM (≈ 50 µg/mL) | > 127 µM | > 127 µM | > 127 µM | 5.32% | 63.6 µM (≈ 50 µg/mL) | > 127 µM | > 127 µM | > 127 µM | > 127 µM | 127 µM (≈ 100 µg/mL) | 31.8 µM (≈ 25 µg/mL) | – | – | – | – | –
5 | O=C(OCc1cn(-c2ccc(Cl)cc2)nn1)c1cn(C2CC2)c2cc(N3CCN(Cc4cn(-c5ccc(Cl)cc5)nn4)CC3)c(F)cc2c1=O | 8.75 µM (≈ 6.25 µg/mL) | – | 4.37 µM (≈ 3.12 µg/mL) | 35 µM (≈ 25 µg/mL) | 4.73% | 2.19 µM (≈ 1.56 µg/mL) | 35 µM (≈ 25 µg/mL) | 4.37 µM (≈ 3.12 µg/mL) | 4.37 µM (≈ 3.12 µg/mL) | 2.19 µM (≈ 1.56 µg/mL) | 35 µM (≈ 25 µg/mL) | 8.75 µM (≈ 6.25 µg/mL) | – | – | – | – | –
6 | O=C(OCc1cn(-c2ccc(Br)cc2)nn1)c1cn(C2CC2)c2cc(N3CCN(Cc4cn(-c5ccc(Br)cc5)nn4)CC3)c(F)cc2c1=O | 3.89 µM (≈ 3.13 µg/mL) | 7.78 µM (≈ 6.25 µg/mL) | 15.6 µM (≈ 12.5 µg/mL) | 31.1 µM (≈ 25 µg/mL) | 1.46% | 1.94 µM (≈ 1.56 µg/mL) | 15.6 µM (≈ 12.5 µg/mL) | 7.78 µM (≈ 6.25 µg/mL) | 15.6 µM (≈ 12.5 µg/mL) | 15.6 µM (≈ 12.5 µg/mL) | 3.89 µM (≈ 3.13 µg/mL) | 15.6 µM (≈ 12.5 µg/mL) | – | – | – | – | –
7 | O=C(OCc1cn(-c2ccccc2)nn1)c1cn(C2CC2)c2cc(N3CCN(Cc4cn(-c5ccccc5)nn4)CC3)c(F)cc2c1=O | 9.68 µM (≈ 6.25 µg/mL) | > 155 µM | > 155 µM | > 155 µM | 4.65% | 38.7 µM (≈ 25 µg/mL) | > 155 µM | > 155 µM | > 155 µM | > 155 µM | 38.7 µM (≈ 25 µg/mL) | > 155 µM | – | – | – | – | –
8 | COc1ccccc1-n1cc(COC(=O)c2cn(C3CC3)c3cc(N4CCN(Cc5cn(-c6ccccc6OC)nn5)CC4)c(F)cc3c2=O)nn1 | 4.43 µM (≈ 3.13 µg/mL) | 35.4 µM (≈ 25 µg/mL) | 4.43 µM (≈ 3.13 µg/mL) | 70.8 µM (≈ 50 µg/mL) | 7.65% | 35.4 µM (≈ 25 µg/mL) | 4.43 µM (≈ 3.13 µg/mL) | 8.86 µM (≈ 6.25 µg/mL) | 17.7 µM (≈ 12.5 µg/mL) | 35.4 µM (≈ 25 µg/mL) | 35.4 µM (≈ 25 µg/mL) | 35.4 µM (≈ 25 µg/mL) | – | – | – | – | –
9 | O=C(OCc1cn(-c2ccc(OC(F)(F)F)cc2)nn1)c1cn(C2CC2)c2cc(N3CCN(Cc4cn(-c5ccc(OC(F)(F)F)cc5)nn4)CC3)c(F)cc2c1=O | 15.4 µM (≈ 12.5 µg/mL) | 30.7 µM (≈ 25 µg/mL) | 3.84 µM (≈ 3.12 µg/mL) | 3.84 µM (≈ 3.12 µg/mL) | 9.75% | 3.84 µM (≈ 3.12 µg/mL) | 15.4 µM (≈ 12.5 µg/mL) | 3.84 µM (≈ 3.12 µg/mL) | 3.84 µM (≈ 3.12 µg/mL) | 0.96 µM (≈ 0.781 µg/mL) | 1.92 µM (≈ 1.56 µg/mL) | 15.4 µM (≈ 12.5 µg/mL) | – | – | – | – | 19
10 | CC(=O)c1ccc(-n2cc(COC(=O)c3cn(C4CC4)c4cc(N5CCN(Cc6cn(-c7ccc(C(C)=O)cc7)nn6)CC5)c(F)cc4c3=O)nn2)cc1 | 2.14 µM (≈ 1.56 µg/mL) | – | 8.56 µM (≈ 6.25 µg/mL) | 8.56 µM (≈ 6.25 µg/mL) | 8.05% | 2.14 µM (≈ 1.56 µg/mL) | 17.1 µM (≈ 12.5 µg/mL) | 2.14 µM (≈ 1.56 µg/mL) | 4.28 µM (≈ 3.12 µg/mL) | 4.28 µM (≈ 3.12 µg/mL) | 2.14 µM (≈ 1.56 µg/mL) | 8.56 µM (≈ 6.25 µg/mL) | – | – | – | – | –
